This passage reports Ki results from US20070270436A1, “NOVEL AMINO- AND IMINO-ALKYLPIPERAZINES” (Recordati Ireland Limited, priority 2006, published 2007).

This assay deals with T1, human 5HT1A-serotonergic receptor (Homo sapiens, UniProt P08908).
T1 construct: expressed in transfected cells; host or cells: HeLa (human), stably transfected; membranes
T1 sequence (P08908 1-422): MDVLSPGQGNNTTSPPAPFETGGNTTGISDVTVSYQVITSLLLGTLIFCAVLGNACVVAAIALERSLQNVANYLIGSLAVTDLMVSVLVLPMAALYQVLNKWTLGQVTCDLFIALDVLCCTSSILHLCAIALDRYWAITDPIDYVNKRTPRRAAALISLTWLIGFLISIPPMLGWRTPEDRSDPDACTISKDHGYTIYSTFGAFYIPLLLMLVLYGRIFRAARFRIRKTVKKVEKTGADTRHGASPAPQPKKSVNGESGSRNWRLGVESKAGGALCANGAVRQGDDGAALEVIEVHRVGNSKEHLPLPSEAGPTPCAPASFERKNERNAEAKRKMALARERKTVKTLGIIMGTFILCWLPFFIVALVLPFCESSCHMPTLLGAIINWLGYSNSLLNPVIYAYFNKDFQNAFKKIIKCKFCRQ
The assay can be described thus: Radioligand binding to recombinant 5-HT1A receptor ([3H]8-OH-DPAT, HeLa cell membranes). Particulars: 1 nM [3H]8-OH-DPAT; Ki from IC50 by the Cheng equation; read-out: Ki (nM), binding affinity for 5HT1A receptor. The procedure: Genomic clone G-21 encoding the human 5HT1A-serotonergic receptor was stably transfected in a human cell line (HeLa). HeLa cells were grown as monolayers in Dulbecco's modified Eagle medium (DMEM), containing 10% fetal bovine serum and gentamycin (100 μg/ml) at 37° C. in a humidified atmosphere of 5% CO2 and air. The cells were detached from the growth flask at 95% confluence by a cell scraper and were lysed in cold 5 mM Tris and 5 mM EDTA buffer (pH 7.4). The homogenates were centrifuged at 40000×g×20 minutes and the pellets were resuspended in a small volume of cold 5 mM Tris and 5 mM EDTA buffer (pH 7.4) and immediately frozen and stored at −70° C. until use. On the day of experiment, the cell membranes were resuspended in incubation buffer: 50 mM Tris (pH 7.4), 2.5 mM MgCl2, 10 μM pargyline (Fargin et al., Nature 335, 358-360, 1988). The membranes were incubated in a final volume of 0.32 ml for 30 minutes at 30° C. with 1 nM [^3H]8-OH-DPAT, in the absence or presence of the test compounds. Non-specific binding was determined in the presence of 10 μM 5-HT. Incubation was stopped by addition of cold Tris buffer and rapid filtration through UniFilter GF/C plate.
The affinity of the tested compounds was evaluated as inhibition of specific binding of the radioligand to 5-HT1A receptor (IC50) by using the non-linear curve-fitting program Allfit (De Lean et al., Am. J. Physiol. 235, E97-E102 (1978)). The IC50 value was converted to an affinity constant (Ki) by the equation of Cheng et al., Biochem. Pharmacol. 22, 3099-3108 (1973).
On to `CON=C(C)C(CCN1CCN(c2cccc3c2OCCO3)CC1)c1ccccc1F` (mixture of isomers) [Example 28, 5-[4-(2,3-Dihydrobenzo[1,4]dioxin-5-yl)piperazin-1-yl]-3-(2-fluorophenyl)-pentan-2-one O-methyloxime], for which the Ki was 1.33 nM. Regarding `CNC(=O)N[C@H](C1CCCCC1)[C@@H](CCN1CCN(c2ccccc2OC)CC1)c1ccccc1F` (racemic) [Example 19, 1-{(RS,SR)-1-Cyclohexyl-2-(2-fluorophenyl)-4-[4-(2-methoxyphenyl)-piperazin-1-yl]butyl}-3-methylurea], the Ki is 2.09 nM. The same measure for `N[C@H](C1CCCCC1)[C@@H](CCN1CCN(c2cccc3c2OCCO3)CC1)c1ccccc1F` (racemic) [Example 38, (RS,SR)-1-Cyclohexyl-4-[4-(2,3-dihydrobenzo[1,4]dioxin-5-yl)-piperazin-1-yl]-2-(2-fluorophenyl)butylamine]: 0.8 nM; for `COc1ccccc1N1CCN(CC[C@H](c2ccccc2F)[C@@H](NC(=S)N(C)C)C2CCCCC2)CC1` (single isomer, unassigned) [Example 24B, 3-{(1S,2R) or (1R,2S)-1-Cyclohexyl-2-(2-fluorophenyl)-4-[4-(2-methoxyphenyl)piperazin-1-yl]butyl}-1,1-dimethylthiourea]: 4.2 nM; for `COc1ccc(Br)c(CN2CCN(CCC(c3ccccc3F)C(NC=O)C3CCCCC3)CC2)c1` (stereo not shown) [Example 42, N-[4-[4-(2-Bromo-5-methoxybenzyl)piperazin-1-yl]-1-cyclohexyl-2-(2-fluorophenyl)butyl]formamide]: 0.5 nM. `COc1ccccc1N1CCN(CC[C@@H](c2ccccc2F)[C@@H](C2CCCCC2)N(C)C(=O)N(C)C)CC1` (racemic) [Example 22, 1-{(RS,SR)-1-Cyclohexyl-2-(2-fluorophenyl)-4-[4-(2-methoxyphenyl)-piperazin-1-yl]butyl}-1,3,3-trimethylurea]: the Ki is 1.24 nM. Regarding `COc1ccccc1N1CCN(CC[C@H](c2ccccc2F)[C@@H](N)C2CCCCC2)CC1` (single isomer, unassigned) [Example 5aB, (1S,2R) or (1R,2S)-1-Cyclohexyl-2-(2-fluorophenyl)-4-[4-(2-methoxyphenyl)piperazin-1-yl]butylamine], the Ki was 1.2 nM. `CC(=NO)C(CCN1CCN(c2ccccc2OCC(F)(F)F)CC1)c1ccccc1F` (stereo not shown) [Example 31, E(Z)-3-(2-Fluorophenyl)-5-{4-[2-(2,2,2-trifluoroethoxy)phenyl]-piperazin-1-yl}pentan-2-one oxime]: the Ki turned out to be 6.03 nM. For `COc1ccccc1N1CCN(CC[C@@H](c2ccccc2F)[C@H](NC(N)=O)C2CCCCC2)CC1` (racemic) [Example 18, {(RS,SR)-1-Cyclohexyl-2-(2-fluorophenyl)-4-[4-(2-methoxyphenyl)-piperazin-1-yl]butyl}urea], the Ki turned out to be 1.84 nM. Next, `COc1ccccc1N1CCN(CC[C@@H](c2ccccc2F)[C@H](N)C2CCCCC2)CC1` (racemic) [Example 5a, (RS,SR)-1-Cyclohexyl-2-(2-fluorophenyl)-4-[4-(2-methoxyphenyl)-piperazin-1-yl]butylamine]: 0.48 nM; `COc1ccccc1N1CCN(CCC(c2ccccc2F)C(NC=O)C2CCCCC2)CC1` (stereo not shown) [Example 6, N-{1-Cyclohexyl-2-(2-fluorophenyl)-4-[4-(2-methoxyphenyl)-piperazin-1-yl]butyl}formamide]: 1.2 nM. The same measure for `COc1ccc(Br)c(CN2CCN(CCC(c3ccccc3F)C(N)C3CCCCC3)CC2)c1` (stereo not shown) [Example 43, 4-[4-(2-Bromo-5-methoxybenzyl)piperazin-1-yl]-1-cyclohexyl-2-(2-fluorophenyl)butylamine]: 0.3 nM; for `NC(C1CCCCC1)C(CCN1CCN(c2cccc3[nH]cnc23)CC1)c1ccccc1F` (stereo not shown) [Example 48, 4-[4-(1H-Benzimidazol-4-yl)piperazin-1-yl]-1-cyclohexyl-2-(2-fluorophenyl)butylamine]: 0.3 nM. On to `COc1ccccc1N1CCN(CC[C@H](c2ccccc2F)[C@H](N)C2CCCCC2)CC1` (racemic) [Example 5b, (RS,RS)-1-Cyclohexyl-2-(2-fluorophenyl)-4-[4-(2-methoxyphenyl)-piperazin-1-yl]butylamine], for which the Ki worked out at 0.77 nM. On to `COc1ccccc1N1CCN(CCC(c2ccccc2F)C(C2CCCCC2)N(Cc2ccco2)Cc2ccco2)CC1` (stereo not shown) [Example 15], for which the Ki was found to be 7.28 nM. Turning to `COc1ccccc1N1CCN(CC[C@@H](c2ccccc2F)[C@H](NC(C)C)C2CCCCC2)CC1` (racemic) [Example 12, (RS,SR)-{1-Cyclohexyl-2-(2-fluorophenyl)-4-[4-(2-methoxyphenyl)-piperazin-1-yl]butyl}isopropylamine], the Ki was found to be 0.99 nM. Regarding `O=CNC(C1CCCCC1)C(CCN1CCN(c2cccc3c2OCCO3)CC1)c1ccccc1F` (stereo not shown) [Example 37, N-[1-Cyclohexyl-4-[4-(2,3-dihydrobenzo[1,4]dioxin-5-yl)piperazin-1-yl]-2-(2-fluorophenyl)butyl]formamide], the Ki was 0.8 nM. As to `CON=C(C)C(CCN1CCN(c2ccccc2OCC(F)(F)F)CC1)c1ccccc1F` (stereo not shown) [Example 32, E(Z)-3-(2-Fluorophenyl)-5-{4-[2-(2,2,2-trifluoroethoxy)phenyl]-piperazin-1-yl}pentan-2-one O-methyloxime], the Ki amounted to 2.24 nM. Next, `CO/N=C(\C1CCCCC1)C(CCN1CCN(c2cccc3c2OCCO3)CC1)c1ccccc1C#N` (racemic) [Example 26, (R,S)-2-{1′-{Cyclohexyl-[(E)-methoxyimino]methyl}-3-[4-(2,3-dihydrobenzo[1,4]dioxin-5-yl)-piperazin-1-yl]propyl}benzonitrile]: 0.38 nM; `COc1ccccc1N1CCN(CCC(c2ccccc2F)C(NC(=O)N2CCOCC2)C2CCCCC2)CC1` (stereo not drawn) [Example 20, 1-{(RS,SR)-1-Cyclohexyl-2-(2-fluorophenyl)-4-[4-(2-methoxyphenyl)-piperazin-1-yl]butyl}morpholine-4-carboxamide]: 2.9 nM.

Turning to `COc1ccccc1N1CCN(CC[C@H](c2ccccc2F)[C@H](NC(C)=O)C2CCCCC2)CC1` (racemic) [Example 9, N-{(RS,RS)-1-Cyclohexyl-2-(2-fluorophenyl)-4-[4-(2-methoxyphenyl)-piperazin-1-yl]butyl}acetamide], the Ki was 1.4 nM. For the compound `CON=C(C1CCCCC1)C(CCN1CCN(c2ccccc2OC)CC1)c1ccccc1F` (stereo not shown) [Example 2, 1-Cyclohexyl-2-(2-fluorophenyl)-4-[4-(2-methoxyphenyl)-piperazin-1-yl]butan-1-one O-methyloxime], the inhibition constant (Ki) was found to be 1.9 nM. As for `COc1ccc(Br)c(CN2CCN(CCC(c3ccccc3F)C(NC(C)=O)C3CCCCC3)CC2)c1` (stereo not shown) [Example 45, N-[4-[4-(2-Bromo-5-methoxybenzyl)piperazin-1-yl]-1-cyclohexyl-2-(2-fluoro-phenyl)butyl]acetamide], the Ki was 1.1 nM. On to `COc1ccc(Br)c(CN2CCN(CCC(c3ccccc3F)C(C3CCCCC3)N(C)C(C)=O)CC2)c1` (stereo not shown) [Example 46, N-[4-[4-(2-Bromo-5-methoxybenzyl)piperazin-1-yl]-1-cyclohexyl-2-(2-fluorophenyl)butyl]-N-methylacetamide], for which the Ki came to 0.8 nM.

Turning to `CNC(C1CCCCC1)C(CCN1CCN(Cc2cc(OC)ccc2Br)CC1)c1ccccc1F` (stereo not shown) [Example 44, 4-[4-(2-Bromo-5-methoxybenzyl)piperazin-1-yl]-1-cyclohexyl-2-(2-fluorophenyl)butylmethylamine], the Ki was determined as 0.4 nM. As for `CC(=NO)C(CCN1CCN(c2cccc3c2OCCO3)CC1)c1ccccc1F` (stereo not shown) [Example 27, E(Z)-5-[4-(2,3-Dihydrobenzo[1,4]dioxin-5-yl)piperazin-1-yl]-3-(2-fluorophenyl)pentan-2-one oxime], the Ki was 1.77 nM. Regarding `CNC(C1CCCCC1)C(CCN1CCN(c2ccccc2OC)CC1)c1ccccc1F` (stereo not shown) [Example 10a], the Ki was 0.49 nM. In the case of `CNC(=S)N[C@H](C1CCCCC1)[C@@H](CCN1CCN(c2ccccc2OC)CC1)c1ccccc1F` (racemic) [Example 23, 1-{(RS,SR)-1-Cyclohexyl-2-(2-fluorophenyl)-4-[4-(2-methoxyphenyl)-piperazin-1-yl]butyl}-3-methylthiourea], the Ki was 0.58 nM.

What is called Ki is the dissociation constant of the complex between target and ligand, obtained from inhibition or displacement.
